Results on one compound are retold here after patent publication US10036052B2, “Method for producing biogenic substances” (BRANDENBURGISCHE TECHNISCHE UNIVERSITÄT COTTBUS-SENFTENBERG, priority 2013, dated 2018).

Molecules are shown by their SMILES.

The data set relates to HepaFH3 (proliferation-competent liver cells). The conditions noted are these: human, 100 μM. Here is the method: HepG2 cells (ATCC HB-8065) are cultivated in the medium DMEM PAA (Pasching, Austria), to which is added 10% FCS Gold, 2 mM L-glutamine, 100 U/mL penicillin, and 0.1 mg/mL streptomycin. Primary human hepatocytes (pHHs) are commercially obtained from, e.g., TebuBio (Le Perray-en-Yvelines, France) or Promocell (Heidelberg, Germany). The cells are seeded onto 50 μg/mL collagen type I (rat tail, BD Biosciences, San Jose, USA) coated cell culture plates and cultivated at 37° C. under 5% CO2 in hepatocyte growth medium (Promocell GmbH, Heidelberg, Germany) or equivalent cell culture media of other manufacturers known to the person skilled in the art. These pHHs can be used for metabolite production immediately or after production of proliferation-competent liver cells. To accomplish this, proliferation genes are transduced into the cells using a lentiviral vector. This technique is described in WO2009/030217A2 (Braspenning et al. (2007)). […] The proliferating hepatocyte clones (cell lines) are characterized with respect to their liver cell markers. […] For definition of sequences to generate primers, the person skilled in the art can use databases such as the NCBI GenBank® (http://www.ncbi.nlm.nih.gov/genbank) or the European Nucleotide Archive (http://www.ebi.ac.uk/ena/). For phase I, the most relevant enzymes are those of the cytochrome P450 (CYP) family. […]

On to `O=C(O)Cc1ccccc1Nc1c(Cl)cccc1Cl` [Diclofenac], for which the “Metabolite 4′-OH-diclofenac formed” value is listed as 7.13 ± 2.22 pmol/(min*10^6 cells).
